Experimental data: patent publication US10633419B2, “Immunomodulators” (BRISTOL-MYERS SQUIBB COMPANY, priority 2014, dated 2020)
pIC50: −log10 of the molar value. Starred links: 1 amine or outer side, 2 acyl side, 3 side chain; linkers in the order of their positions; H or OH if unused. Positions of bridges follow the written chain, without caps; N, C: chain ends. Non-standard residues stand in square brackets, D forms with d. Residues, ends and D or L forms follow the SMILES beside them. Groups on a side chain read outwards from the residue. *: point of attachment. Dap(Nα-HOOC(CH2)16CO)OH = O=C(O)CCCCCCCCCCCCCCCCC(=O)N[C@@H](CN*)C(=O)O; X4 = O=C(O)CCCCCCCCCCCCCCCCC(=O)N[C@@H](CC(=O)NCCCOCCOCCOCCCN*)C(=O)O; Trp(1-CH2COOH) = N[C@@H](Cc1cn(CC(=O)O)c2ccccc12)C(=O)O; C18 diacid = O=C(O)CCCCCCCCCCCCCCCCC(=O)*; γGlu = O=C(O)[C@H](CCC(=O)[*:2])N[*:1]; NH(CH2)12COOH = O=C(O)CCCCCCCCCCCCN*; Bta = N[C@@H](Cc1csc2ccccc12)C(=O)O; PEG6 = NCCOCCOCCOCCOCCOCCOCCC(=O)O; Aha = [N-]=[N+]=NCC[C@H](N)C(=O)O; Hyp = O=C(O)[C@@H]1C[C@@H](O)CN1; dHyp = O=C(O)[C@H]1C[C@H](O)CN1; NMeNle = CCCC[C@H](NC)C(=O)O; Pip = O=C(O)[C@@H]1CCCCN1; NMeA = CN[C@@H](C)C(=O)O; Aun = NCCCCCCCCCCC(=O)O; Dab = NCC[C@H](N)C(=O)O; Dap = NC[C@H](N)C(=O)O

What follows are molecules tested against T1, PD-L1 (Homo sapiens, UniProt Q9NZQ7) (assay: PD-1/PD-L1 Homogenous Time-Resolved Fluorescence (HTRF) binding assay (PD-1-Ig/PD-L1-His)). Details: inhibition of PD-1-Ig binding to PD-L1-TVMV-His; value given as range class; read-out: HTRF IC50.
T1 construct: hPDL1(19-239)-TVMV-His; made in house; host or cells: HEK293T
T1 sequence (Q9NZQ7 with tags, fused parts or gaps): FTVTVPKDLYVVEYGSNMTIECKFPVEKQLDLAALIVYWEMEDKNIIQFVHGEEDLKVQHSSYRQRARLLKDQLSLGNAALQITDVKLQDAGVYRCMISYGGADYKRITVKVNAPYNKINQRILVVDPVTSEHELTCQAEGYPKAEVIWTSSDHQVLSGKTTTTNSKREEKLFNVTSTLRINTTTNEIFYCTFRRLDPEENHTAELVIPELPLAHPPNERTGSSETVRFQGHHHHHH
How it was run: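 Inhibitors pre-incubated 15 min with PD-L1-His (10 nM final), then PD-1-Ig (20 nM final) added for 15 min in dPBS/0.1% BSA/0.05% Tween-20. Eu-cryptate anti-Ig (1 nM) and APC anti-His (20 nM) added, 30 min equilibration, 665/620 nm HTRF ratio read.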

Structure (SMILES) | pIC50
CCCC[C@H]1C(=O)N(C)[C@@H](CCCC)C(=O)N[C@@H](CC(C)C)C(=O)N[C@H](C(=O)NCC(=O)N[C@@H](CC(=O)O)C(=O)NCCOCCOCCOCCOCCOCCOCCC(=O)NC[C@H](NC(=O)CCCCCCCCCCCCCCCCC(=O)O)C(=O)O)CSCC(=O)N[C@@H](Cc2ccc(O)cc2)C(=O)N(C)[C@@H](C)C(=O)N[C@@H](CC(N)=O)C(=O)N2CCC[C@H]2C(=O)N[C@@H](CN)C(=O)N[C@@H](CC(C)C)C(=O)N2C[C@H](O)C[C@H]2C(=O)N[C@@H](Cc2c[nH]c3ccccc23)C(=O)N[C@@H](CCN)C(=O)N[C@@H](Cc2cn(CC(=O)O)c3ccccc23)C(=O)N1C [Example 11181] ({CH2CO}-Y[NMeA]NP[Dap]L[Hyp]W[Dab][Trp(1-CH2COOH)][NMeNle][NMeNle]LCGD[PEG6]-{Dap(Nα-HOOC(CH2)16CO)OH}; thioether N-14) | 5.80 to 7.00
CCCC[C@H]1C(=O)N(C)[C@@H](CCCC)C(=O)N[C@@H](CC(C)C)C(=O)N[C@H](C(=O)NCC(=O)N[C@@H](CC(=O)O)C(=O)NCC(=O)NCCCCCCCCCCCCC(=O)O)CSCC(=O)N[C@@H](Cc2ccc(O)cc2)C(=O)N(C)[C@@H](C)C(=O)N[C@@H](CC(N)=O)C(=O)N2CCC[C@H]2C(=O)N[C@@H](CN)C(=O)N[C@@H](CC(C)C)C(=O)N2C[C@H](O)C[C@H]2C(=O)N[C@@H](Cc2c[nH]c3ccccc23)C(=O)N[C@@H](CCN)C(=O)N[C@@H](Cc2cn(CC(=O)O)c3ccccc23)C(=O)N1C [Example 11223] ({CH2CO}-Y[NMeA]NP[Dap]L[Hyp]W[Dab][Trp(1-CH2COOH)][NMeNle][NMeNle]LCGDG-{NH(CH2)12COOH}; thioether N-14) | 7.00 to 8.00
CCCC[C@H]1C(=O)N(C)[C@@H](CCCC)C(=O)N[C@@H](CC(C)C)C(=O)N[C@H](C(=O)NCC(=O)NCC(=O)NCC(=O)NCCCCCCCCCCC(=O)O)CSCC(=O)N[C@@H](Cc2ccc(O)cc2)C(=O)N(C)[C@@H](C)C(=O)N[C@@H](CC(=O)O)C(=O)N2CCC[C@H]2C(=O)N[C@@H](CN)C(=O)N[C@@H](CCC(=O)O)C(=O)N2C[C@H](O)C[C@H]2C(=O)N[C@@H](Cc2c[nH]c3ccccc23)C(=O)N[C@@H](CCN)C(=O)N[C@@H](Cc2cn(CC(=O)O)c3ccccc23)C(=O)N1C [Example 11097] ({CH2CO}-Y[NMeA]DP[Dap]E[Hyp]W[Dab][Trp(1-CH2COOH)][NMeNle][NMeNle]LCGGG[Aun]-OH; thioether N-14) | 7.00 to 8.00
CCCC[C@H]1C(=O)N(C)[C@@H](CCCC)C(=O)N[C@@H](CC(C)C)C(=O)N[C@H](C(=O)NCCCCCCCCCCC(=O)NCCCCCCCCCCC(=O)O)CSCC(=O)N[C@@H](Cc2ccc(O)cc2)C(=O)N(C)[C@@H](C)C(=O)N[C@@H](CC(N)=O)C(=O)N2CCC[C@H]2C(=O)N[C@@H](CN)C(=O)N[C@@H](CCC(N)=O)C(=O)N2C[C@H](O)C[C@H]2C(=O)N[C@@H](Cc2c[nH]c3ccccc23)C(=O)N[C@@H](CO)C(=O)N[C@@H](Cc2cn(CC(=O)O)c3ccccc23)C(=O)N1C [Example 11089] ({CH2CO}-Y[NMeA]NP[Dap]Q[Hyp]WS[Trp(1-CH2COOH)][NMeNle][NMeNle]LC[Aun][Aun]-OH; thioether N-14) | 7.00 to 8.00

Second part, the molecule after the results:

pIC50 | Structure (SMILES)
8.00 to 9.52 | CCCC[C@H]1C(=O)N(C)[C@@H](CCCC)C(=O)N[C@@H](CC(C)C)C(=O)N[C@H](C(=O)NCC(=O)N[C@@H](CCC(=O)NCCCOCCOCCOCCCNC(=O)C[C@H](NC(=O)CCCCCCCCCCCCCCCCC(=O)O)C(=O)O)C(=O)O)CSCC(=O)N[C@@H](Cc2ccc(O)cc2)C(=O)N(C)[C@@H](C)C(=O)N[C@@H](CC(N)=O)C(=O)N2CCC[C@@H]2C(=O)N[C@@H](CN)C(=O)N[C@@H](CC(C)C)C(=O)N2C[C@@H](O)C[C@@H]2C(=O)N[C@@H](Cc2c[nH]c3ccccc23)C(=O)N[C@@H](CCN)C(=O)N[C@@H](Cc2cn(CC(=O)O)c3ccccc23)C(=O)N1C [Example 11234] ({CH2CO}-Y[NMeA]N[dP][Dap]L[dHyp]W[Dab][Trp(1-CH2COOH)][NMeNle][NMeNle]LCGE(X4)-OH; thioether N-14)
8.00 to 9.52 | CCCC[C@H]1C(=O)N(C)[C@@H](CCCC)C(=O)N[C@@H](CC(C)C)C(=O)N[C@H](C(=O)NCC(=O)N[C@@H](CNC(=O)CC[C@H](NC(=O)CCCCCCCCCCCCCCCCC(=O)O)C(=O)O)C(=O)O)CSCC(=O)N[C@@H](Cc2ccc(OC)cc2)C(=O)N2CCCC[C@H]2C(=O)N[C@@H](CC(N)=O)C(=O)N2CCC[C@H]2C(=O)N[C@@H](Cc2c[nH]cn2)C(=O)N[C@@H](CCC(N)=O)C(=O)N2C[C@H](O)C[C@H]2C(=O)N[C@@H](Cc2c[nH]c3ccccc23)C(=O)N[C@@H](CCN)C(=O)N[C@@H](Cc2cn(CC(=O)O)c3ccccc23)C(=O)N1C [Example 13154] ({CH2CO}-Y(Me)[Pip]NPHQ[Hyp]W[Dab][Trp(1-CH2COOH)][NMeNle][NMeNle]LCG[Dap]([γGlu-C18 diacid])-OH; thioether N-14)
8.00 to 9.52 | CCCC[C@H]1C(=O)N(C)[C@@H](CCCC)C(=O)N[C@@H](CCCNC(=N)N)C(=O)N[C@H](C(=O)NCC(=O)NCC(=O)N[C@@H](CCN=[N+]=[N-])C(N)=O)CSCC(=O)N[C@@H](Cc2ccc(O)cc2)C(=O)N(C)[C@@H](C)C(=O)N[C@@H](CC(N)=O)C(=O)N2CCC[C@H]2C(=O)N[C@@H](CN)C(=O)N[C@@H](CC(C)C)C(=O)N2C[C@H](O)C[C@H]2C(=O)N[C@@H](Cc2c[nH]c3ccccc23)C(=O)N[C@@H](CO)C(=O)N[C@@H](Cc2csc3ccccc23)C(=O)N1C [INT 1300C] ({CH2CO}-Y[NMeA]NP[Dap]L[Hyp]WS[Bta][NMeNle][NMeNle]RCGG[Aha]-NH2; thioether N-14)
